Measurements reported in patent publication US4206215A, “Antimicrobial bis-[4-(substituted-amino)-1-pyridinium]alkanes” (Sterling Drug Inc., priority 1977, dated 1980).
Where two headings read alike, the source gives them in different places.

Experiments:
S. Aureus Smith = assay: In vitro antibacterial activity, MIC (modified Autotiter method); type: cell-based, Staphylococcus aureus; conditions: 18-20 hours at 37° C.; for MIC: Staphylococcus aureus, 20 h, read-out: MIC S. Aureus Smith
Method in brief: (§1)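 Final drug range: 500 → 0.06 mcg./ml., twofold decrements, in inoculated semisynthetic glucose medium. Dilution performed by Autotiter transfer loops in sterile water from a 1,000 mcg./ml. compound solution.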

E. coli 100/B22 = assay: as above; type: cell-based, Escherichia coli; conditions: for MIC: Escherichia coli, 100/B22, 20 h, read-out: MIC E. coli 100/B22, 18-20 hours at 37° C.
Method in brief: as §1

E. coli AB1932-1 = assay: as above; type: cell-based, Escherichia coli; conditions: 18-20 hours at 37° C.; for MIC: Escherichia coli, AB19321, 20 h, read-out: MIC E. coli AB1932-1
Method in brief: as §1

E. coli Vogel = assay: as above; type: cell-based, Escherichia coli; conditions: 18-20 hours at 37° C.; for MIC: Escherichia coli, 20 h, read-out: MIC E. coli Vogel
Method in brief: as §1

K. pneum. 39645 = assay: as above; type: cell-based, Klebsiella pneumoniae; conditions: 18-20 hours at 37° C.; for MIC: Klebsiella pneumoniae, 20 h, read-out: MIC K. pneum. 39645
Method in brief: as §1

P. mirab. MGH-1 = assay: as above; type: cell-based, Proteus mirabilis; conditions: 18-20 hours at 37° C.; for MIC: Proteus mirabilis, 20 h, read-out: MIC P. mirab. MGH-1
Method in brief: as §1

Ps. aerug. MGH-2 = assay: as above; type: cell-based, Pseudomonas aeruginosa; conditions: 18-20 hours at 37° C.; for MIC: Pseudomonas aeruginosa, 20 h, read-out: MIC Ps. aerug. MGH-2
Method in brief: as §1

S. pyogen. C203 = assay: as above; type: cell-based, Streptococcus pyogenes; conditions: 18-20 hours at 37° C.; for MIC: Streptococcus pyogenes, 20 h, read-out: MIC S. pyogen. C203
Method in brief: as §1

A. niger 16404 = assay: In vitro antifungal activity, MIC (modified Autotiter method); type: cell-based, Aspergillus niger; conditions: 18-20 hours at 37° C.; for MIC: Aspergillus niger, 16404, 20 h, read-out: MIC A. niger 16404
Method in brief: as §1

C. albicans 10231 = assay: as above; type: cell-based, Candida albicans; conditions: 18-20 hours at 37° C.; for MIC: Candida albicans, 10231, 20 h, read-out: MIC C. albicans 10231
Method in brief: as §1

C. albicans Wisc. = assay: as above; type: cell-based, Candida albicans; conditions: 18-20 hours at 37° C.; for MIC: Candida albicans, 20 h, read-out: MIC C. albicans Wisc.
Method in brief: as §1

T. menta. 9129 = assay: as above; type: cell-based, Trichophyton mentagrophytes; conditions: 18-20 hours at 37° C.; for MIC: Trichophyton mentagrophytes, 20 h, read-out: MIC T. menta. 9129
Method in brief: as §1

S. Aureus ATCC 6538 = assay: Effect of serum on bacteriostatic activity (serial tube dilution test); type: cell-based, Staphyloccocus aureus; conditions: for Fold Increase in MIC S. Aureus ATCC 6538: 40% vs 0% horse serum; for MIC: Staphylococcus aureus, ATCC6538
Procedure: (§2) Antibacterial effectiveness in the presence of serum was determined for representative examples by the standard serial tube dilution test wherein paired comparisons of minimum inhibitory concentrations (MIC) were determined in the absence and in the presence of heat inactivated (30 min. at 56° C.) horse serum (40%) in the test medium. The results are expressed as the fold increase in MIC (mcg./ml.) versus Staphyloccocus aureus and Escherichia coli caused by the presence of serum and are presented in Table B hereinbelow.

E. Coli ATCC 8739 = assay: as above; type: cell-based, Escherichia coli; conditions: for Fold Increase in MIC E. Coli ATCC 8739: 40% vs 0% horse serum; for MIC: Escherichia coli, ATCC8739
Procedure: as §2

[1] = Acute oral toxicity (ALD50); type: in vivo; conditions: mouse, in vivo, po, mice, read-out: 7-Day ALD50
Procedure: (§3) The acute oral toxicity (ALD50) of several representative examples was determined as follows: Groups of 3 young adult male Swiss-Webster strain albino mice were fasted approximately 4 hours before medication and then medicated once orally by stomach tube.

[2] = system: young adult male Swiss-Webster strain albino mice; assay: Acute oral toxicity (ALD50); type: in vivo
Procedure: as §3

[3] = 40% heat inactivated horse serum, read-out: MIC S. Aureus ATCC 6538 40% Serum
[4] = read-out: MIC S. Aureus ATCC 6538 0% Serum
[5] = 40% heat inactivated horse serum, read-out: MIC E. Coli ATCC 8739 40% Serum
[6] = read-out: MIC E. Coli ATCC 8739 0% Serum
[7] = suspension in 1% gum tragacanth
[8] = 125 mg/kg oral, suspension in 1% G.T.
[9] = 250 mg/kg oral, suspension in 1% G.T.
[10] = 500 mg/kg oral, suspension in 1% G.T.
[11] = 1000 mg/kg oral, suspension in 1% G.T.
[12] = 125 mg/kg oral, aqueous solution
[13] = 250 mg/kg oral, aqueous solution
[14] = 500 mg/kg oral, aqueous solution
[15] = 1000 mg/kg oral, aqueous solution

In the case of CCCCCCCNc1cc[n+](CCCCCCCCCC[n+]2ccc(NCCCCCCC)cc2)cc1 [Example 26, 1,10-bis-[4-(heptylamino)-1-pyridinium]decane dibromide], the MIC (S. Aureus Smith) is reported as 0.37 µg/mL, the MIC (E. coli 100/B22) is reported as 0.75 µg/mL and the MIC (E. coli AB1932-1) is reported as 0.75 µg/mL. For the same compound, the MIC (E. coli Vogel) was 0.75 µg/mL, the MIC (K. pneum. 39645) was 1.49 µg/mL and the MIC (P. mirab. MGH-1) was 6 µg/mL. The MIC (Ps. aerug. MGH-2) was 11.9 µg/mL, the “MIC S. pyogen. C203” value (S. pyogen. C203) was 1.95 µg/mL and the MIC (A. niger 16404) was 2.98 µg/mL. The “MIC C. albicans 10231” value (C. albicans 10231) was 0.75 µg/mL, the MIC (C. albicans Wisc.) was 1.49 µg/mL and the MIC (T. menta. 9129) was 0.75 µg/mL. The “Fold Increase in MIC S. Aureus ATCC 6538” value (S. Aureus ATCC 6538) was 16 fold, the MIC (S. Aureus ATCC 6538; [3]) was 1.95 µg/mL and the MIC (S. Aureus ATCC 6538; [4]) was 0.125 µg/mL. For the same compound, the “Fold Increase in MIC E. Coli ATCC 8739” value (E. Coli ATCC 8739) was 16 fold, the MIC (E. Coli ATCC 8739; [5]) was 7.8 µg/mL and the MIC (E. Coli ATCC 8739; [6]) was 0.5 µg/mL. For the same compound, the LD50 at 168 h [1, 7] was over 1000 mg/kg, the “Mortality 7 Days” value [2, 8] was 0/3 and the “Mortality 24 Hrs” value [2, 8] was 0/3. For the same compound, the “Mortality 7 Days” value [2, 9] was 0/3, the “Mortality 24 Hrs” value [2, 9] was 0/3 and the “Mortality 7 Days” value [2, 10] was 0/3. The “Mortality 24 Hrs” value [2, 10] was 0/3, the “Mortality 7 Days” value [2, 11] was 0/3 and the “Mortality 24 Hrs” value [2, 11] was 0/3.

In the case of CCCCCCCCCNc1cc[n+](CCCCCCCC[n+]2ccc(NCCCCCCCCC)cc2)cc1 [Example 29C, 1,8-bis-[4-(nonylamino)-1-pyridinium]octane dibromide], the MIC (S. Aureus Smith) is reported as 1 µg/mL, the MIC (E. coli 100/B22) is reported as 1.95 µg/mL and the MIC (E. coli AB1932-1) is reported as 1.95 µg/mL. It also gave an MIC (E. coli Vogel) of 3.9 µg/mL, an MIC (K. pneum. 39645) of 1.95 µg/mL and an MIC (P. mirab. MGH-1) of 3.9 µg/mL. The MIC (Ps. aerug. MGH-2) was 7.8 µg/mL, the MIC (S. pyogen. C203) was 1.95 µg/mL and the MIC (A. niger 16404) was 7.8 µg/mL. The MIC (C. albicans 10231) was 3.9 µg/mL, the MIC (C. albicans Wisc.) was 3.9 µg/mL and the MIC (T. menta. 9129) was 1.95 µg/mL. For the same compound, the “Fold Increase in MIC S. Aureus ATCC 6538” value (S. Aureus ATCC 6538) was 16 fold, the MIC (S. Aureus ATCC 6538; [3]) was 7.8 µg/mL and the MIC (S. Aureus ATCC 6538; [4]) was 0.5 µg/mL. For the same compound, the “Fold Increase in MIC E. Coli ATCC 8739” value (E. Coli ATCC 8739) was 16 fold, the MIC (E. Coli ATCC 8739; [5]) was 62.5 µg/mL and the MIC (E. Coli ATCC 8739; [6]) was 3.9 µg/mL. The LD50 at 168 h [1, 7] was over 1000 mg/kg, the “Mortality 7 Days” value [2, 8] was 0/3 and the “Mortality 24 Hrs” value [2, 8] was 0/3. For the same compound, the “Mortality 7 Days” value [2, 9] was 0/3, the “Mortality 24 Hrs” value [2, 9] was 0/3 and the “Mortality 7 Days” value [2, 10] was 0/3. The “Mortality 24 Hrs” value [2, 10] was 0/3, the “Mortality 7 Days” value [2, 11] was 0/3 and the “Mortality 24 Hrs” value [2, 11] was 0/3.

CCCCC(CC)CNc1cc[n+](CCCCCCCCCCCC[n+]2ccc(NCC(CC)CCCC)cc2)cc1 (stereo not drawn) [Example 41C, 1,12-bis-[4-(2-ethylhexylamino)-1-pyridinium]dodecane dibromide] showed an MIC (S. Aureus Smith) of 0.5 µg/mL, an MIC (E. coli 100/B22) of 1 µg/mL and an MIC (E. coli AB1932-1) of 1 µg/mL. The MIC (E. coli Vogel) was 1 µg/mL, the MIC (K. pneum. 39645) was 1.95 µg/mL and the MIC (P. mirab. MGH-1) was 3.9 µg/mL. For the same compound, the MIC (Ps. aerug. MGH-2) was 3.9 µg/mL, the MIC (S. pyogen. C203) was 0.5 µg/mL and the MIC (A. niger 16404) was 3.9 µg/mL. For the same compound, the MIC (C. albicans 10231) was 1 µg/mL, the MIC (C. albicans Wisc.) was 1 µg/mL and the MIC (T. menta. 9129) was 1 µg/mL. The “Fold Increase in MIC S. Aureus ATCC 6538” value (S. Aureus ATCC 6538) was 32 fold, the MIC (S. Aureus ATCC 6538; [3]) was 7.8 µg/mL and the MIC (S. Aureus ATCC 6538; [4]) was 0.25 µg/mL. The “Fold Increase in MIC E. Coli ATCC 8739” value (E. Coli ATCC 8739) was 64 fold, the MIC (E. Coli ATCC 8739; [5]) was 62.5 µg/mL and the MIC (E. Coli ATCC 8739; [6]) was 1 µg/mL. The LD50 at 168 h [1, 7] was over 1000 mg/kg, the “Mortality 7 Days” value [2, 8] was 0/3 and the “Mortality 24 Hrs” value [2, 8] was 0/3. For the same compound, the “Mortality 7 Days” value [2, 9] was 0/3, the “Mortality 24 Hrs” value [2, 9] was 0/3 and the “Mortality 7 Days” value [2, 10] was 0/3. The “Mortality 24 Hrs” value [2, 10] was 0/3, the “Mortality 7 Days” value [2, 11] was 0/3 and the “Mortality 24 Hrs” value [2, 11] was 0/3.

In the case of CCCCC(CC)CNc1cc[n+](CCCCCCCCCC[n+]2ccc(NCC(CC)CCCC)cc2)cc1 (stereo not drawn) [Example 59, 1,10-Bis-[4-(2-ethylhexylamino)-1-pyridinium]-decane dichloride], the “MIC S. Aureus Smith” value (S. Aureus Smith) is reported as 0.25 µg/mL, the “MIC E. coli 100/B22” value (E. coli 100/B22; 18-20 hours at 37° C.) is reported as 0.5 µg/mL and the “MIC E. coli AB1932-1” value (E. coli AB1932-1) is reported as 1.0 µg/mL. For the same compound, the “MIC E. coli Vogel” value (E. coli Vogel) was 1.0 µg/mL, the “MIC K. pneum. 39645” value (K. pneum. 39645) was 1.95 µg/mL and the “MIC P. mirab. MGH-1” value (P. mirab. MGH-1) was 7.8 µg/mL. The “MIC Ps. aerug. MGH-2” value (Ps. aerug. MGH-2) was 31.3 µg/mL, the “MIC S. pyogen. C203” value (S. pyogen. C203) was 1.0 µg/mL and the “MIC A. niger 16404” value (A. niger 16404) was 15.6 µg/mL. The “MIC C. albicans 10231” value (C. albicans 10231) was 1.95 µg/mL, the “MIC C. albicans Wisc.” value (C. albicans Wisc.) was 1.95 µg/mL and the “MIC T. menta. 9129” value (T. menta. 9129) was 1.0 µg/mL. For the same compound, the LD50 at 168 h ([1]; aqueous solution) was 750 mg/kg, the “Mortality 7 Days” value [2, 12] was 0/3 and the “Mortality 24 Hrs” value [2, 12] was 0/3. The “Mortality 7 Days” value [2, 13] was 0/3, the “Mortality 24 Hrs” value [2, 13] was 0/3 and the “Mortality 7 Days” value [2, 14] was 2/3. For the same compound, the “Mortality 24 Hrs” value [2, 14] was 1/3, the “Mortality 7 Days” value [2, 15] was 1/3 and the “Mortality 24 Hrs” value [2, 15] was 1/3.
